Results: US20250197382A1, “KIF18A INHIBITOR” (WIGEN BIOMEDICINE TECHNOLOGY (SHANGHAI) CO., LTD., priority 2022, published 2025)

system: HCT116 cells; experiment: In vitro anti-proliferative activity against HCT116 cells (intracellular ATP content, 72 h); assay type: cell-based; details: Homo sapiens, HCT-116, 72 h after dosing
Method: Biological Example 3. In Vitro Anti-Proliferative Activity of Compounds of the Present Invention Against HCT116 Cells
(§1) HCT116 cells were seeded on a 384-well plate at 3000 cells/well. After overnight adherence culture, DMSO or the compounds serially diluted in a 1:5 ratio from 5 μM were added. The viability was assessed 72 h after dosing by measuring the intracellular ATP content. The inhibition percentages of viable cells by the compounds were calculated by comparing with the DMSO group, and the IC50 values were also calculated.

| SMILES | IC50 [nM] |
| --- | --- |
| Cn1ccc2cc(NC(=O)c3ccc(NS(=O)(=O)CCO)cc3N3CCC4(CC3)CC4)cc(N3CCC(F)(F)CC3)c21 [Compound 385] | > 10000 |
| C[C@@H]1CN(c2cc(NC(=O)c3ccc(NS(=O)(=O)CCO)cc3N3CCC4(CC3)CC4)cc3c2OCC3)CCO1 [Compound 2] | > 10000 |
| C[C@H]1CN(c2nc(NC(=O)c3ccc(NS(=O)(=O)CCO)cc3N3CCC4(CC3)CC4)cc3c2OCC3)CCO1 [Compound 67] | > 10000 |
| O=C(Nc1cc2c(c(N3CCC4(CC4)C3)n1)OCC2)c1ccc(NS(=O)(=O)CCO)cc1N1CCC2(CC1)CC2 [Compound 70] | > 10000 |
| O=C(Nc1ccc(NS(=O)(=O)CCO)cc1N1CCC2(CC1)CC2)c1cc2cccnc2c(N2CCC(F)(F)CC2)n1 [Compound 584] | > 10000 |
| O=C(Nc1cc2c(c(N3CCC4(CC4)C3)c1)OCC2)c1ccc(NS(=O)(=O)CCO)cc1N1CCC2(CC1)CC2 [Compound 6] | > 10000 |
| C[C@H]1CN(c2cc(NC(=O)c3ccc(NS(=O)(=O)CCO)cc3N3CCC4(CC3)CC4)cc3c2OCC3)CCO1 [Compound 3] | > 10000 |

system: HT-29 cells; experiment: In vitro anti-proliferative activity against HT-29 cells (intracellular ATP content, 72 h); assay type: cell-based; details: Homo sapiens, 72 h after dosing
Method: Biological Example 2. In Vitro Anti-Proliferative Activity of Compounds of the Present Invention Against HT-29 Cells
as §1, with “HT-29” for “HCT116”, “[…]” for “IC50”

| SMILES | IC50 [nM] |
| --- | --- |
| O=C(Nc1ccc(NS(=O)(=O)CCO)cc1N1CCC2(CC1)CC2)c1cc2cccnc2c(N2CCC(F)(F)CC2)n1 [Compound 584] | 70 |

molecular target: Recombinant human KIF18A (1-467His-tagged) protein (Homo sapiens (Human), UniProt Q8NI77); experiment: KIF18A enzyme assay (microtubule-stimulated ATPase activity, ADP-Glo); assay type: biochemical; details: 30 nM KIF18A, ATP 75 μM, read-out: inhibitory activity against KIF18A IC50
Sequence (Q8NI77 1-467): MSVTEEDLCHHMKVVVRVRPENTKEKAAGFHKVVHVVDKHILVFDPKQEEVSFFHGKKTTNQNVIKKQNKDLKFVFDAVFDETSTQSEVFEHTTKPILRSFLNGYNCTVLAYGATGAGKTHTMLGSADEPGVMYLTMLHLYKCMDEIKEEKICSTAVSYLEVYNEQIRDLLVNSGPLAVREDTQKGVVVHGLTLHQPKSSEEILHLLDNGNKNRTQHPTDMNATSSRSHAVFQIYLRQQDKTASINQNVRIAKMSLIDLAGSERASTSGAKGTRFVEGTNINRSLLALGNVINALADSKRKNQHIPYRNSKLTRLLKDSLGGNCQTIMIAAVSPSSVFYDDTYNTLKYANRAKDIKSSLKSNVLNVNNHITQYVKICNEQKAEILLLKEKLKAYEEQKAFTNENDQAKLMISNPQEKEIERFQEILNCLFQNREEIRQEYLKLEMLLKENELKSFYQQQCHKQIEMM
Sequence (P02550 whole entry partner): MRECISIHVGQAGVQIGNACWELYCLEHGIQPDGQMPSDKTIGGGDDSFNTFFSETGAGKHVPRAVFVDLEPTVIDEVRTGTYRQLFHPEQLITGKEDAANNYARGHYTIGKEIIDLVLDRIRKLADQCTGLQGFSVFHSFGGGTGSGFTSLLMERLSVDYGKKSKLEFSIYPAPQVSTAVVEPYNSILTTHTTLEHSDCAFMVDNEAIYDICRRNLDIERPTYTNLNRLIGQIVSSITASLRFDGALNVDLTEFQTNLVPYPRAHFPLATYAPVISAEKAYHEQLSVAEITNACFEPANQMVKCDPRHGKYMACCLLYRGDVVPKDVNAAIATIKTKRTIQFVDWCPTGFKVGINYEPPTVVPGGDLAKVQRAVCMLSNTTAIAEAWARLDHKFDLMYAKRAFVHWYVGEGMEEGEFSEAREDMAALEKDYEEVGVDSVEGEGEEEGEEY
Sequence (P02554 whole entry partner): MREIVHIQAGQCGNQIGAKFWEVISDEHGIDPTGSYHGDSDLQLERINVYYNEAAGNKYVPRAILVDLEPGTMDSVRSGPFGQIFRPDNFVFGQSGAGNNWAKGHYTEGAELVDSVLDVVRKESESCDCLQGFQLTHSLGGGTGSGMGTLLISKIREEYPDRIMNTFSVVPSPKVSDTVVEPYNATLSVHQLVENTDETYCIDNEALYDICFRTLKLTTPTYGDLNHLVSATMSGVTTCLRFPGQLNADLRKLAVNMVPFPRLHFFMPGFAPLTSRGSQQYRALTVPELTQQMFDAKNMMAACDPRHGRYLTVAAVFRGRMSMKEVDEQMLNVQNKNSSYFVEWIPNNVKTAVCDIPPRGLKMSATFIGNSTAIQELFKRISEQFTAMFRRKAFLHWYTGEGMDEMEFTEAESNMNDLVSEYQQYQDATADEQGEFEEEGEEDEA
Procedure, shortened: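 Baculovirus-expressed human KIF18A (1-467, His-tagged; 30 nM) preincubated 15 min at room temperature with compound (22-point 2-fold series) in pH 7.5 Tris buffer containing 30 μg/mL pig microtubules and 1 μM paclitaxel.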

| SMILES | IC50 [nM] |
| --- | --- |
| Cn1ccc2cc(NC(=O)c3ccc(NS(=O)(=O)CCO)cc3N3CCC4(CC3)CC4)cc(N3CCC(F)(F)CC3)c21 [Compound 385] | ≤ 100 |
| C[C@@H]1CN(c2cc(NC(=O)c3ccc(NS(=O)(=O)CCO)cc3N3CCC4(CC3)CC4)cc3c2OCC3)CCO1 [Compound 2] | ≤ 100 |
| C[C@H]1CN(c2nc(NC(=O)c3ccc(NS(=O)(=O)CCO)cc3N3CCC4(CC3)CC4)cc3c2OCC3)CCO1 [Compound 67] | ≤ 100 |
| O=C(Nc1cc2c(c(N3CCC4(CC4)C3)n1)OCC2)c1ccc(NS(=O)(=O)CCO)cc1N1CCC2(CC1)CC2 [Compound 70] | ≤ 100 |
| O=C(Nc1cc2c(c(N3CCC4(CC4)C3)c1)OCC2)c1ccc(NS(=O)(=O)CCO)cc1N1CCC2(CC1)CC2 [Compound 6] | ≤ 100 |
| C[C@H]1CN(c2cc(NC(=O)c3ccc(NS(=O)(=O)CCO)cc3N3CCC4(CC3)CC4)cc3c2OCC3)CCO1 [Compound 3] | ≤ 100 |
| C[C@H]1CN(c2cc(C(=O)Nc3ccc(NS(=O)(=O)CCO)cc3N3CCC4(CC3)CC4)cc3ccoc23)CCO1 [Compound 163] | ≤ 100 |
| O=C(Nc1cc(OCCC(F)(F)F)c2occc2c1)c1ccc(NS(=O)(=O)CCO)cc1N1CCC2(CC1)CC2 [Compound 133] | ≤ 100 |
| CN1CCc2cc(C(=O)Nc3ccc(S(=O)(=O)NCCO)cc3N3CCC4(CC3)CC4)cc(NC(C)(C)CO)c21 [Compound 315] | ≤ 100 |
| CN1CCc2cc(NC(=O)c3ccc(S(=O)(=O)NCCO)cc3N3CCC4(CC3)CC4)cc(N3CCC4(CC4)C3)c21 [Compound 278] | ≤ 100 |
| O=C(Nc1cc2ccoc2c(N2CCC(F)CC2)n1)c1ccc(S(=O)(=O)NCCO)cc1N1CCC2(CC1)CC2 [Compound 217] | ≤ 100 |
| O=C(Nc1cc2c(c(N3CCC(F)CC3)n1)OCC2)c1ccc(NS(=O)(=O)CCO)cc1N1CCC2(CC1)CC2 [Compound 73] | ≤ 100 |
| CN1CCc2cc(NC(=O)c3ccc(S(=O)(=O)NCCO)cc3N3CCC4(CC3)CC4)cc(OCCC(F)(F)F)c21 [Compound 277] | ≤ 100 |
| Cn1ccc2cc(C(=O)Nc3ccc(S(=O)(=O)NCCO)cc3N3CCC4(CC3)CC4)cc(OC3CCC3)c21 [Compound 439] | ≤ 100 |
| C[C@H](CO)S(=O)(=O)Nc1ccc(NC(=O)c2cc3c(c(N4CCC(F)(F)CC4)c2)OCC3)c(N2CCC3(CC2)CC3)c1 [Compound 46] | ≤ 100 |
| CC(C)(CO)Nc1nc(C(=O)Nc2ccc(S(=O)(=O)NCCO)cc2N2CCC3(CC2)CC3)cc2c1OCC2 [Compound 123] | ≤ 100 |
| O=C(Nc1ccc(NS(=O)(=O)CCO)cc1N1CCC2(CC1)CC2)c1cc(N2CCC(F)CC2)c2occc2c1 [Compound 169] | ≤ 100 |
| Cn1ccc2cc(C(=O)Nc3ccc(S(=O)(=O)NCCO)cc3N3CCC4(CC3)CC4)nc(OC3CCC3)c21 [Compound 503] | ≤ 100 |
| C[C@H](CO)S(=O)(=O)Nc1ccc(NC(=O)c2cc3c(c(N4CCC(F)(F)CC4)c2)N(C)CC3)c(N2CCC3(CC2)CC3)c1 [Compound 302] | ≤ 100 |

| SMILES | IC50 [nM] |
| --- | --- |
| C[C@H](CO)NS(=O)(=O)c1ccc(C(=O)Nc2cc3ccn(C)c3c(N3CCO[C@H](C)C3)n2)c(N2CCC3(CC2)CC3)c1 [Compound 480] | ≤ 100 |
| C[C@@H](CO)S(=O)(=O)Nc1ccc(C(=O)Nc2cc3c(c(N4CCC(F)(F)CC4)n2)N(C)CC3)c(C2CCC3(CC2)CC3)c1 [Compound 333] | ≤ 100 |
| O=C(Nc1cc2c(c(N3CCC(F)(F)CC3)c1)OCC2)c1ccc(S(=O)(=O)NCCO)cc1N1CCC2(CC1)CC2 [Compound 17] | ≤ 100 |
| CC(C)(CO)Nc1cc(NC(=O)c2ccc(NS(=O)(=O)CCO)cc2N2CCC3(CC2)CC3)cc2c1OCC2 [Compound 11] | ≤ 100 |
| C[C@@H]1CN(c2cc(C(=O)Nc3ccc(NS(=O)(=O)[C@H](C)CO)cc3N3CCC4(CC3)CC4)cc3c2OCC3)CCO1 [Compound 48] | ≤ 100 |
| O=C(Nc1cc2c(c(N3CCC(F)(F)CC3)c1)OCCC2)c1ccc(S(=O)(=O)NCCO)cc1N1CCC2(CC1)CC2 [Compound 546] | ≤ 100 |
| O=C(Nc1ccc(S(=O)(=O)NCCO)cc1N1CCC2(CC1)CC2)c1cc(N2CCC(F)(F)CC2)c2occc2c1 [Compound 177] | ≤ 100 |
| Cn1ccc2cc(C(=O)Nc3ccc(S(=O)(=O)NCCO)cc3N3CCC4(CC3)CC4)nc(N3CCC(F)CC3)c21 [Compound 505] | ≤ 100 |
| Cn1ccc2cc(C(=O)Nc3ccc(NS(=O)(=O)CCO)cc3N3CCC4(CC3)CC4)nc(N3CCOCC3)c21 [Compound 492] | ≤ 100 |
| O=C(Nc1cc2c(c(N3CCC(F)(F)CC3)n1)OCO2)c1ccc(NS(=O)(=O)CCO)cc1N1CCC2(CC1)CC2 [Compound 538] | ≤ 100 |
| C[C@@H]1CN(c2cc(NC(=O)c3ccc(S(=O)(=O)NCCO)cc3N3CCC4(CC3)CC4)cc3c2OCC3)CCO1 [Compound 18] | ≤ 100 |
| O=C(Nc1cc2ccoc2c(N2CC3CC3C2)n1)c1ccc(NS(=O)(=O)CCO)cc1N1CCC2(CC1)CC2 (stereo not shown) [Compound 202] | ≤ 100 |
| C[C@H](CO)NS(=O)(=O)c1ccc(C(=O)Nc2cc3c(c(N4CCC(F)(F)CC4)c2)N(C)CC3)c(N2CCC3(CC2)CC3)c1 [Compound 286] | ≤ 100 |
| Cn1ccc2cc(NC(=O)c3ccc(S(=O)(=O)NCCO)cc3N3CCC4(CC3)CC4)nc(N3CC4CC4C3)c21 (stereo not shown) [Compound 474] | ≤ 100 |
| C[C@@H](CO)S(=O)(=O)Nc1ccc(C(=O)Nc2cc(N3CCC(F)(F)CC3)c3c(ccn3C)c2)c(N2CCC3(CC2)CC3)c1 [Compound 397] | ≤ 100 |
| O=C(Nc1cc2c(c(N3CCC(F)(F)CC3)c1)OCCO2)c1ccc(NS(=O)(=O)CCO)cc1N1CCC2(CC1)CC2 [Compound 543] | ≤ 100 |
| C[C@@H]1CN(c2nc(C(=O)Nc3ccc(NS(=O)(=O)CCO)cc3N3CCC4(CC3)CC4)cc3c2OCC3)CCO1 [Compound 98] | ≤ 100 |
| C[C@@H]1CN(c2cc(NC(=O)c3ccc(S(=O)(=O)N[C@@H](C)CO)cc3N3CCC4(CC3)CC4)cc3c2OCC3)CCO1 [Compound 31] | ≤ 100 |
| CC1(F)CCN(c2nc(NC(=O)c3ccc(NS(=O)(=O)CCO)cc3N3CCC4(CC3)CC4)cc3c2OCC3)C1 (stereo not shown) [Compound 72] | ≤ 100 |

| SMILES | IC50 [nM] |
| --- | --- |
| O=C(Nc1cc2nc[nH]c2c(N2CCC(F)(F)CC2)n1)c1ccc(NS(=O)(=O)CCO)cc1N1CCC2(CC1)CC2 [Compound 526] | ≤ 100 |
| CN1CCc2cc(NC(=O)c3ccc(S(=O)(=O)NCCO)cc3N3CCC4(CC3)CC4)nc(N3CCOCC3)c21 [Compound 332] | ≤ 100 |
| CN1CCc2cc(NC(=O)c3ccc(S(=O)(=O)NCCO)cc3N3CCC4(CC3)CC4)cc(NC(C)(C)CO)c21 [Compound 283] | ≤ 100 |
| C[C@H]1CN(c2cc(NC(=O)c3ccc(S(=O)(=O)NCCO)cc3N3CCC4(CC3)CC4)cc3c2OCC3)CCO1 [Compound 19] | ≤ 100 |
| CN1CCc2cc(C(=O)Nc3ccc(NS(=O)(=O)CCO)cc3N3CCC4(CC3)CC4)nc(N3CC(F)(F)C3)c21 [Compound 356] | ≤ 100 |
| O=C(Nc1ccc(S(=O)(=O)NCCO)cc1N1CCC2(CC1)CC2)c1cc2ccoc2c(N2CCC(F)CC2)n1 [Compound 249] | ≤ 100 |
| C[C@H](CO)NS(=O)(=O)c1ccc(C(=O)Nc2cc(N3CCO[C@H](C)C3)c3c(ccn3C)c2)c(N2CCC3(CC2)CC3)c1 [Compound 416] | ≤ 100 |
| O=C(Nc1cc2ccoc2c(N2CC(F)(F)C2)n1)c1ccc(S(=O)(=O)NCCO)cc1N1CCC2(CC1)CC2 [Compound 212] | ≤ 100 |
| CC1(F)CCN(c2cc(NC(=O)c3ccc(NS(=O)(=O)CCO)cc3N3CCC4(CC3)CC4)cc3c2OCC3)C1 (stereo not shown) [Compound 8] | ≤ 100 |
| Cn1ccc2cc(C(=O)Nc3ccc(S(=O)(=O)NCCO)cc3N3CCC4(CC3)CC4)nc(N3CCC(C)(F)C3)c21 (stereo not shown) [Compound 504] | ≤ 100 |
| CN1CCc2cc(C(=O)Nc3ccc(NS(=O)(=O)CCO)cc3N3CCC4(CC3)CC4)nc(OCCC(F)(F)F)c21 [Compound 357] | ≤ 100 |
| O=C(Nc1ccc(S(=O)(=O)NCCO)cc1N1CCC2(CC1)CC2)c1cc(N2CCOCC2)c2occc2c1 [Compound 188] | ≤ 100 |
| C[C@H](CO)NS(=O)(=O)c1ccc(C(=O)Nc2cc3ccoc3c(N3CCO[C@H](C)C3)n2)c(N2CCC3(CC2)CC3)c1 [Compound 224] | ≤ 100 |
| CN1CCc2cc(C(=O)Nc3ccc(NS(=O)(=O)CCO)cc3N3CCC4(CC3)CC4)nc(N3CCC(F)CC3)c21 [Compound 361] | ≤ 100 |
| CC(C)(CO)Nc1nc(NC(=O)c2ccc(NS(=O)(=O)CCO)cc2N2CCC3(CC2)CC3)cc2ccoc12 [Compound 203] | ≤ 100 |
| O=C(Nc1ccc(S(=O)(=O)NCCO)cc1N1CCC2(CC1)CC2)c1cc2ccoc2c(OCCC(F)(F)F)n1 [Compound 245] | ≤ 100 |
| O=C(Nc1cc(N2CCC(F)(F)CC2)c2ccccc2c1)c1ccc(NS(=O)(=O)CCO)cc1N1CCC2(CC1)CC2 [Compound 529] | 100 to 500 |
| C[C@@H](CO)S(=O)(=O)Nc1ccc(NC(=O)c2cc3c(c(N4CCC(F)(F)CC4)c2)N(C)CC3)c(N2CCC3(CC2)CC3)c1 [Compound 301] | ≤ 100 |
